molecular target: AMPK; experiment: AMPK activation, enzyme-linked immunosorbent assay; type: biochemical; settings: compounds of Table 1 (Table 6)

Going from `O=C(NC1CCN(Cc2ccc(F)cc2)CC1)c1cc2ccc(OC3CCN(c4ccc(C(F)(F)F)cc4)CC3)cc2o1` [1-91, N-(1-(4-fluorobenzyl)piperidin-4-yl)-6-(1-(4-(trifluoromethyl)phenyl)piperidin-4-yloxy)benzofuran-2-carboxamide] to `Cc1c(C(=O)NC2CCN(Cc3ccc(C#N)cc3)CC2)oc2cc(OC3CCN(c4ccc(C(F)(F)F)cc4)CC3)ccc12` [1-64, N-(1-(4-cyanobenzyl)piperidin-4-yl)-3-methyl-6-(1-(4-(trifluoromethyl)phenyl)piperidin-4-yloxy)benzofuran-2-carboxamide], the EC50 falls from greater than 10000 nM to less than 100 nM.

`CN(C(=O)c1cc2cc(OC3CCN(c4ccc(C(F)(F)F)cc4)CC3)ccc2o1)C1CCN(Cc2ccc(C(F)(F)F)cc2)CC1` [1-119, N-methyl-N-(1-(4-(trifluoromethyl)benzyl)piperidin-4-yl)-5-(1-(4-(trifluoromethyl)phenyl)piperidin-4-yloxy)benzofuran-2-carboxamide] and `CN(C(=O)c1cc2cc(OC3CCN(c4ccc(C(F)(F)F)cc4)CC3)ccc2o1)C1CCN(Cc2ccc(C#N)cc2)CC1` [1-107, N-(1-(4-cyanobenzyl)piperidin-4-yl)-N-methyl-5-(1-(4-(trifluoromethyl)phenyl)piperidin-4-yloxy)benzofuran-2-carboxamide] cannot be ordered by EC50: less than 100 nM for the first, less than 100 nM for the second.

`O=C(NC1CCN(Cc2ccncc2)CC1)c1sc2cc(OC3CCN(c4ccc(C(F)(F)F)cc4)CC3)ccc2c1Cl` [1-151, 3-chloro-N-(1-(pyridin-4-ylmethyl)piperidin-4-yl)-6-(1-(4-(trifluoromethyl)phenyl)piperidin-4-yloxy)benzo[b]thiophene-2-carboxamide] and `Cc1c(C(=O)NC2CCN(Cc3ccccc3C#N)CC2)oc2cc(OC3CCN(c4ccc(C(F)(F)F)cc4)CC3)ccc12` [1-67, N-(1-(2-cyanobenzyl)piperidin-4-yl)-3-methyl-6-(1-(4-(trifluoromethyl)phenyl)piperidin-4-yloxy)benzofuran-2-carboxamide] cannot be ordered by EC50: less than 100 nM for the first, less than 100 nM for the second.

First: N#Cc1ccc(CN2CCC(Oc3ccc4oc(C(=O)NC5CCN(Cc6ccccc6)CC5)cc4c3)CC2)cc1 [1-114, N-(1-benzylpiperidin-4-yl)-5-(1-(4-cyanobenzyl)piperidin-4-yloxy)benzofuran-2-carboxamide]
Second: O=C(N[C@H]1CCN(Cc2cccnc2)C1)c1cc2cc(OC3CCN(Cc4ccc(Cl)cc4)CC3)ccc2o1 [1-130, (S)-5-(1-(4-chlorobenzyl)piperidin-4-yloxy)-N-(1-(pyridin-3-ylmethyl)pyrrolidin-3-yl)benzofuran-2-carboxamide]
The EC50 of the first is lower: 100 to 500 nM for the first, 1000 to 5000 nM for the second. The first is the more potent here.

First: O=C(NC1CCN(Cc2ccccc2)CC1)c1cc2cc(OC3CCN(c4ccc(OC(F)(F)F)cc4)CC3)ccc2o1 [1-80, N-(1-benzylpiperidin-4-yl)-5-(1-(4-(trifluoromethoxy)phenyl)piperidin-4-yloxy)benzofuran-2-carboxamide]
Second: CC(C)(C)OC(=O)N1CCC(NC(=O)c2cc3ccc(OC4CCN(c5ccc(OC(F)(F)F)cc5)CC4)cc3o2)CC1 [1-81, tert-butyl 4-(6-(1-(4-(trifluoromethoxy)phenyl)piperidin-4-yloxy)benzofuran-2-carboxamido)piperidine-1-carboxylate]
The EC50 of the first is lower: less than 100 nM for the first, 100 to 500 nM for the second.

`N#Cc1ccc(N2CCC(Oc3ccc(C(=O)NC4CCN(Cc5cccnc5)CC4)nc3)CC2)cc1` [1-6, N-(1-(pyridin-3-ylmethyl)piperidin-4-yl)-5-(1-(4-cyanophenyl)piperidin-4-yloxy)picolinamide] gave an EC50 of 100 to 500 nM.

same assay, conditions: compounds of Table 2 (Table 7)

First: O=C(NC1CCN(Cc2cccnc2)CC1)c1ccc2[nH]c3c(c2c1)CN(c1ccc(F)cc1)CC3 [2-36, 2-(4-fluorophenyl)-N-(1-(pyridin-3-ylmethyl)piperidin-4-yl)-2,3,4,5-tetrahydro-1H-pyrido [4,3-b]indole-8-carboxamide]
Second: O=C(NC1CCN(C(=O)Nc2ccc(C(F)(F)F)cc2)CC1)c1ccc2[nH]c3c(c2c1)CN(Cc1ccc(C(F)(F)F)cc1)CC3 [2-33, 2-(4-(trifluoromethyl)benzyl)-N-(1-(4-(trifluoromethyl)phenylcarbamoyl)piperidin-4-yl)-2,3,4,5-tetrahydro-1H-pyrido[4,3-b]indole-8-carboxamide]
The EC50 of the first is higher: greater than 100000 nM for the first, 1000 to 5000 nM for the second. The second is the more potent here.

same assay, conditions: compounds of Table 3 (Table 8)

For `N#Cc1ccc(CN2CCC(NC(=O)c3ccc(C(=O)N4CCN(Cc5ccc(Cl)cc5)CC4)cc3)CC2)cc1` [3-28, 4-(4-(4-chlorobenzyl)piperazine-1-carbonyl)-N-(1-(4-cyanobenzyl)piperidin-4-yl)benzamide], the EC50 was less than 100 nM.

same assay, conditions: compounds of Table 5 (Table 10)

`O=C(NC1CCN(Cc2ccc(Cl)cc2)CC1)c1ccc(OC2CCN(Cc3ccc(Cl)c(Cl)c3)CC2)c(F)c1` [5-80, N-(1-(4-chlorobenzyl)piperidin-4-yl)-4-(1-(3,4-dichlorobenzyl)piperidin-4-yloxy)-3-fluorobenzamide] and `Cc1ccc(CN2CCC(Oc3ccc(C(=O)NC4CCN(Cc5ccc(Cl)cc5)CC4)cc3F)CC2)cc1` [5-73, N-(1-(4-chlorobenzyl)piperidin-4-yl)-3-fluoro-4-(1-(4-methylbenzyl)piperidin-4-yloxy)benzamide] cannot be ordered by EC50: less than 1000 nM for the first, less than 1000 nM for the second.

`O=C(NC1CCN(Cc2ccccc2)CC1)c1ccc(OC2CCN(Cc3ccc(OC(F)(F)F)cc3)CC2)c(Cl)c1` [5-54, N-(1-benzylpiperidin-4-yl)-3-chloro-4-(1-(4-(trifluoromethoxy)benzyl)piperidin-4-yloxy)benzamide] and `O=C(NC1CCN(Cc2ccccc2)CC1)c1ccc(OC2CCN(Cc3ccncc3)CC2)c(Cl)c1` [5-6, N-(1-benzylpiperidin-4-yl)-3-chloro-4-(1-(pyridin-4-ylmethyl)piperidin-4-yloxy)benzamide] cannot be ordered by EC50: less than 1000 nM for the first, less than 1000 nM for the second.

— US9511058B2, “Methods for using carboxamide, sulfonamide and amine compounds” (Rigel Pharmaceuticals, Inc., priority 2010, dated 2016)
